A short description of test [1]: Michaelis constant was determined by native APH(3')-IIa method.
Test [2] in a line: Kinetic constant(Kcat) was determined by native APH(3')-IIa method.
Test [3] in a line: Ratio of kinetic catalyst/Km was determined.
The nature of test [4]: Kinetic catalyst(Kcat) was determined by Cyanylated APH(3')-IIa method.
A short description of test [5]: Km was determined by Cyanylated APH(3')-IIa method.

On to `NC[C@H]1O[C@H](O[C@H]2[C@H](O)[C@@H](O)[C@H](N)C[C@@H]2N)[C@H](N)[C@@H](O)[C@@H]1O`, for which the Km in test [1] was 1.2 µM; in test [5] it was 7.9 µM. Moreover, the k cat is 29 s⁻¹ in test [2] and 9.93 s⁻¹ in test [4]. Besides, the figures for the Ratio in test [3] and in test [4] were 2.4e+07 M⁻¹ s⁻¹ and 1.3e+06 M⁻¹ s⁻¹, respectively.

Source of the values: ChEMBL document CHEMBL1130703, “The use of neamine as a molecular template: inactivation of bacterial antibiotic resistance enzyme aminoglycoside 3'-phosphotransferase type IIa” (Bioorg Med Chem Lett, 1998).
